US6794387B2, “Pharmaceutically active compounds” (Pfizer Inc., priority 2001, dated 2004)

Columns and labels:
[1] = biological target: T1, cGMP PDE5 (human corp. cav.) (Homo sapiens, UniProt O76074); assay: Phosphodiesterase (PDE) inhibitory activity, cGMP PDE5; type: biochemical; conditions: enzyme from human corpus cavernosum
T1 construct: from tissue; host or cells: human corpus cavernosum
Method: Compounds of the present invention are potent and selective cGMP PDE5 inhibitors. In vitro PDE inhibitory activities against cyclic guanosine 3′,5′-monophosphate (cGMP) and cyclic adenosine 3′,5′-monophosphate (cAMP) phosphodiesterases were determined by measurement of their IC50 values (the concentration of compound required for 50% inhibition of enzyme activity).
The required PDE enzymes were isolated from a variety of sources, including human corpus cavernosum, human platelets, human cardiac ventricle, human skeletal muscle and human and canine retina, essentially by the method of W. J. Thompson and M. M. Appleman (Biochem., 1971, 10, 311). […]
Assays were performed either using a modification of the “batch” method of W. J. Thompson et al. (Biochem., 1979, 18, 5228) or using a scintillation proximity assay for the direct detection of AMP/GMP using a modification of the protocol described by Amersham plc under product code TRKQ7090/7100. […] Plates were re-sealed and shaken for 20 min, after which the beads were allowed to settle for 30 min in the dark and then counted on a TopCount plate reader (Packard, Meriden, Conn.). Radioactivity units were converted to % activity of an uninhibited control (100%), plotted against inhibitor concentration and inhibitor IC50 values obtained using the ‘Fit Curve’ Microsoft Excel extension or in-house equivalent.

[2] = In vitro metabolism in human hepatic microsomal fractions (HLM half-life); type: in vitro ADME; conditions: human liver microsomes, initial substrate concentration 1 μM, 37° C.
Method: In vitro metabolism experiments were carried out in the hepatic microsomal fractions from man. Transplant-quality human liver tissue was obtained from the International Institute for the Advancement of Medicine (Exton, Pa., USA). Microsomes were prepared according to the method described in Biochemical Pharmacology, […], 48, 2147-2156 and stored at −80° C. The concentrations of protein and cytochrome P450 were determined by standard methods described in Journal of Biological Chemistry, 1951, 193, 265-275 and Journal of Biological Chemistry, 1964, 239, 2370-2378.
Microsomal incubations (1.5 ml) were prepared containing 0.5 μM cytochrome P450, 200 mM phosphate buffer (pH 7.4), 0.1 M MgCl2, 0.1 M isocitric acid, 1 unit/ml isocitrate dehydrogenase and 20 mM β-NADP. […] The extracts were evaporated to dryness and analysed by LC-MS/MS (Hewlett Packard HP1100 binary pump, Hypersil HS100 C18, 5 cm by 4.6 mm internal diameter, 5 μm column using a mobile phase of 2 mM ammonium acetate in 90:10 methanol/water, aqueous portion adjusted to pH 4 with glacial acetic acid, and a flowrate of 1 ml/min). […] Disappearance rate constants (k) in human microsomal preparations were determined by linear regression of the log ratio (compound under study/internal standard) versus time. The in vitro human microsomal half-lives were determined according to the equation t1/2=In 2/k. […]

Row | HLM t1/2 [2] [min] | SMILES | IC50 [1] [nM] | half-life at 1 μM ([2]; pH 7.4, read-out: HLM t1/2) [min]
1 | – | CCCCOc1ncc(C(C)=O)cc1-c1nn2c(CC)nc(CCC)c2c(=O)[nH]1 [Example 2, 2-(5-Acetyl-2-butoxy-3-pyridinyl)-7-ethyl-5-propylimidazo[5,1-f][1,2,4]triazin-4(3H)-one] | 1.96 | –
2 | 4 | CCCc1nc(C)c2c(=O)[nH]c(-c3cc(S(=O)(=O)N4CCN(CC)CC4)ccc3OCC)nn12 [Comound A, 2-[2-ethoxy-5-(4-ethyl-piperazin-1-yl-1-sulphonyl)-phenyl]-5-methyl-7-propyl-3H-imidazo[5,1-f][1,2,4]triazin-4-one, reference compound] | – | –
3 | – | CCCCOc1ncc(C(C)=O)cc1-c1nn2c(CC)nc(C)c2c(=O)[nH]1 [Example 1, 2-(5-Acetyl-2-butoxy-3-pyridinyl)-7-ethyl-5-methylimidazo[5,1-f][1,2,4]triazin-4(3H)-one] | 1.34 | 21
